Measured values: the supplement of paper PMC10307832

Assays:
Assay in all cases: relative viability (nuclei count vs DMSO), 5 days (fraction); higher = more cells survive
[1] = compound: CC1=C(C=CC(=C1)[N+](=O)[O-])NS(=O)(=O)C2=C(C=CC(=C2)Cl)Cl [FH535] + Cc1nc(Nc2ncc(C(=O)Nc3c(C)cccc3Cl)s2)cc(N2CCN(CCO)CC2)n1 [Dasatinib] (partner 0.075 µM)
Summary of the method: (§1)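 Relative viability divides the nuclei count in treated wells by that in vehicle wells. Lung cancer cell lines were seeded in 1536-well plates, dosed by pin tool the next day, and fixed and stained after 5 days in one step with final 0.05% Triton X-100, 1% formaldehyde and 1 ug/ml Hoechst. Dosing was a single drug or a fixed anchor-drug dose plus five library-drug doses (not always all listed) in √10 steps, and values are medians of duplicate plates imaged at 4×.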

[2] = compound: CC1=C(C=CC(=C1)[N+](=O)[O-])NS(=O)(=O)C2=C(C=CC(=C2)Cl)Cl [FH535] + CS(=O)(=O)CCNCc1ccc(-c2ccc3ncnc(Nc4ccc(OCc5cccc(F)c5)c(Cl)c4)c3c2)o1 [Lapatinib] (partner 2 µM)
Summary of the method: as §1

[3] = compound: CC1=C(C=CC(=C1)[N+](=O)[O-])NS(=O)(=O)C2=C(C=CC(=C2)Cl)Cl [FH535] + CC1(C)CCC(c2ccc(Cl)cc2)=C(CN2CCN(c3ccc(C(=O)NS(=O)(=O)c4ccc(N[C@H](CCN5CCOCC5)CSc5ccccc5)c(S(=O)(=O)C(F)(F)F)c4)cc3)CC2)C1 [Navitoclax] (partner 0.5 µM)
Summary of the method: as §1

[4] = compound: CC1=C(C=CC(=C1)[N+](=O)[O-])NS(=O)(=O)C2=C(C=CC(=C2)Cl)Cl [FH535] + CC(=O)Nc1cccc(-n2c(=O)n(C3CC3)c(=O)c3c(Nc4ccc(I)cc4F)n(C)c(=O)c(C)c32)c1 [Trametinib] (partner 0.02 µM)
Summary of the method: as §1

[5] = compound: CC1=C(C=CC(=C1)[N+](=O)[O-])NS(=O)(=O)C2=C(C=CC(=C2)Cl)Cl [FH535] + COc1cc2c(Oc3ccc(NC(=O)C4(C(=O)Nc5ccc(F)cc5)CC4)cc3F)ccnc2cc1OCCCN1CCOCC1 [Foretinib] (partner 0.25 µM)
Summary of the method: as §1

Cell Line | relative viability ([1]; first compound 0.04 µM) | relative viability ([1]; first compound 0.1265 µM) | relative viability ([1]; first compound 0.4 µM) | relative viability ([1]; first compound 1.265 µM) | relative viability ([2]; first compound 0.04 µM) | relative viability ([2]; first compound 0.1265 µM) | relative viability ([2]; first compound 0.4 µM) | relative viability ([2]; first compound 1.265 µM) | relative viability ([3]; first compound 0.04 µM) | relative viability ([3]; first compound 0.1265 µM) | relative viability ([3]; first compound 0.4 µM) | relative viability ([3]; first compound 1.265 µM) | relative viability ([4]; first compound 0.04 µM) | relative viability ([4]; first compound 0.1265 µM) | relative viability ([4]; first compound 0.4 µM) | relative viability ([4]; first compound 1.265 µM) | relative viability ([5]; first compound 0.04 µM) | relative viability ([5]; first compound 0.1265 µM) | relative viability ([5]; first compound 0.4 µM) | relative viability ([5]; first compound 1.265 µM)
LXF-289 | 0.205 | 0.262 | 0.225 | 0.212 | 0.88 | 0.878 | 0.886 | 0.801 | 0.996 | 0.936 | 0.945 | 0.645 | 0.726 | 0.689 | 0.62 | 0.436 | 0.975 | 0.983 | 0.862 | 0.684
NCI-H23 | 0.769 | 0.529 | 0.61 | 0.731 |  | 1.17 | 0.936 | 0.913 |  | 0.821 | 0.818 | 0.703 | 0.345 | 0.448 | 0.418 | 0.306 | 0.469 | 1.07 | 0.953 | 0.636
NCI-H322M | 0.255 | 0.268 | 0.238 | 0.219 | 0.504 | 0.554 | 0.555 | 0.595 | 1.13 | 1.39 | 1.19 | 1.2 | 0.47 | 0.459 | 0.478 | 0.526 | 0.966 | 1 | 0.961 | 0.882
NCI-H460 | 0.356 | 0.546 | 0.452 | 0.337 | 0.992 | 1.08 | 1 | 0.575 | 1.15 | 1.25 | 1.11 | 0.696 | 0.12 | 0.152 | 0.157 | 0.103 | 1.05 | 1.05 | 0.937 | 0.654
NCI-H520 | 0.203 | 0.193 | 0.2 | 0.19 | 0.848 | 0.768 | 0.818 | 0.761 | 1.11 | 1.09 | 1.06 | 0.882 | 0.703 | 0.691 | 0.696 | 0.684 | 0.684 | 0.781 | 0.574 | 0.875
NCI-H596 | 0.673 | 0.574 | 0.604 | 0.55 | 1.06 | 1.03 | 0.985 | 0.94 | 0.856 | 0.967 | 1.05 | 0.874 | 0.814 | 0.864 | 0.854 | 0.748 | 0.833 | 0.899 | 0.852 | 0.819
NCI-H647 | 0.183 | 0.193 | 0.129 | 0.152 | 0.971 | 1.08 | 0.914 | 0.864 | 1.06 | 1.2 | 1.1 | 0.919 | 0.51 | 0.566 | 0.424 | 0.418 | 1.14 | 1.22 | 1.13 | 1.14
NCI-H727 | 0.405 | 0.434 | 0.364 | 0.402 | 0.85 | 0.628 | 0.727 | 0.665 | 0.479 | 0.39 | 0.369 | 0.381 | 0.402 | 0.362 | 0.365 | 0.387 | 1.04 | 0.637 | 0.925 | 0.684
NCI-H838 | 0.276 | 0.291 | 0.284 | 0.269 | 0.971 | 0.873 | 0.795 | 0.734 | 1.16 | 1.24 | 1.07 | 0.969 | 0.536 | 0.52 | 0.452 | 0.462 | 1.03 | 1.11 | 0.933 | 0.823
NCI-H1355 | 0.723 | 0.692 | 0.57 | 0.605 | 0.92 | 1.01 | 0.933 | 0.883 | 0.862 | 0.998 | 0.88 | 0.66 | 0.397 | 0.428 | 0.406 | 0.329 | 1.03 | 1 | 0.904 | 0.582
NCI-H1395 | 0.361 | 0.402 | 0.413 | 0.344 | 0.768 | 0.968 | 0.964 | 0.555 | 1 | 1.23 | 1.06 | 0.895 | 0.936 | 1.02 | 1.06 | 0.874 | 0.952 | 0.967 | 0.868 | 0.831
NCI-H1437 | 0.372 | 0.405 | 0.184 | 0.109 | 0.731 | 0.534 | 0.631 | 0.349 | 1.07 | 1.06 | 0.867 | 0.461 | 0.498 | 0.567 | 0.386 | 0.32 | 1.27 | 1.21 | 0.924 | 0.425
NCI-H1650 | 0.281 | 0.299 | 0.3 | 0.297 | 0.642 | 0.73 | 0.74 | 0.784 | 1.17 | 1.27 | 1.17 | 0.856 | 0.476 | 0.714 | 0.459 | 0.584 | 0.966 | 1.28 | 1.01 | 0.825
NCI-H1651 | 0.397 | 0.419 | 0.284 | 0.201 | 0.815 | 0.729 | 0.731 | 0.669 | 1.15 | 1.2 | 1.05 | 0.864 | 0.81 | 0.78 | 0.79 | 0.666 | 0.888 | 0.856 | 0.697 | 0.584
NCI-H1666 | 0.833 | 0.85 | 0.716 | 0.64 | 0.601 | 0.623 | 0.634 | 0.421 | 0.934 | 0.956 | 1.07 | 0.693 | 0.861 | 0.869 | 0.905 | 0.69 | 0.919 | 0.975 | 0.913 | 0.8
